What was measured:
[1] = test system: human breast cancer cell line HCC1954; experiment: HCC1954 growth inhibition assay; format: cell-based; conditions: 3 days incubation, CellTiter-Glo
Experimental: In this assay, the growth inhibitory activity of test compounds in a human breast cancer cell line HCC1954 was measured. HCC1954 cells were maintained in an RPMI-1640 medium modified to contain 2 mM L-glutamine, 10 mM HEPES, 1 mM sodium pyruvate, 4500 mg/L glucose, and 1500 mg/L sodium bicarbonate (ATCC 30-2001) containing 10% fetal bovine serum (FBS: Nichirei, 12D168), and penicillin and streptomycin in a 5% CO2 incubator (37° C.). To each well of a 96 well plate (Becton, Dickinson and Company, 353219), 75 μL of HCC1954 cell suspension adjusted to a concentration of 4×10^4 cells/mL with the culture medium was added, and the cells were incubated overnight in a 5% CO2 incubator (37° C.). On the next day, 25 μL of Compound (1) or Halichondrin B in three-fold dilution series suspended in the culture medium was added to each well, and the resultant was incubated for 3 days in a 5% CO2 incubator (37° C.). Then, cell viability was determined by CellTiter-Glo® Luminescent Cell Viability Assay (Promega) with EnVision 2103 Multilabel Reader (Perkin-Elmer, Wellesley, Mass.). Value of the wells containing cells without adding the test compounds was defined as 100% and the value of the wells containing no cells was defined as 0%. The concentration of the test compound necessary for inhibiting the cell growth by 50% (i.e., an IC50 value) was calculated, and shown in Table 3.

[2] = test system: microtubule dynamics in U2OS-EB3-AG osteosarcoma cell line; experiment: Cell-based microtubule dynamics assay
Experimental: A cell-based microtubule (MT) dynamics assay was conducted with the U2OS-EB3-AG osteosarcoma cell line, in which the fusion protein of EB3 (a microtubule plus end binding protein) and Azami-Green (EB3-AG) was stably expressed. U2OS-EB3-AG cells were culture in RPMI-1640 medium containing 10% FBS, and penicillin-streptomycin, at 37° C. in a humidified 5% CO2 atmosphere. The MT dynamics in the live cells can be visualized as the movement of the comet-like structure of EB3-AG. U2OS-EB3-AG cells plated on glass-base culture plates (EZVIEW plate, AGC Techno Glass, Japan) were treated with Compound (1) at the indicated concentration and the microtubule dynamics were monitored by time-lapse imaging using fluorescent microscope with 60-fold magnification oil-immersed objective lens (BZ-X710, KEYENCE, Japan). Higher magnification views of the boxed areas were shown in inlets. When treated with Compound (1) at 0.5 nM (IC50 value for antiproliferative activity in U2OS-EB3-AG cells), the comet-like structures became hard to observe at around 60 minutes after the addition of the compound.

[3] = test system: OE21 (human squamous cell carcinoma of the esophagus); experiment: In vitro antiproliferative activity, OE21; format: cell-based; conditions: OE21, 72 hours
Experimental: (§1) The in vitro antiproliferative assays for Compound (1) were conducted using a small panel of cancer cell lines including human squamous cell carcinoma of the esophagus (OE21, TE-8), human adenocarcinoma of the esophagus (OE33), and human uterine sarcoma (MES-SA, MES-SA-Dx5-Rx1). All cell lines were cultured in RPMI-1640 medium containing 10% FBS, and penicillin-streptomycin (culture medium), in a 5% CO2 incubator (37° C.). To each well of a 96 well plate (Becton, Dickinson and Company, 353219), 75 μL of cell suspension adjusted to a concentration of 4×10^4 cells/mL with the culture medium was added, and the cells were incubated overnight in a 5% CO2 incubator (37° C.). On the next day, 25 μL of Compound (1) in three-fold dilution series suspended in the culture medium was added to each well, and the resultant was incubated for 72 hours in a 5% CO2 incubator (37° C.). Then, cell viability was determined by CellTiter-Glo® Luminescent Cell Viability Assay (Promega) with 2013 EnVision™ Multilabel Reader (Perkin-Elmer, Wellesley, Mass.). Value of the wells containing cells without adding the test compounds was defined as 100% and the value of the wells containing no cells was defined as 0%. […] The P-gp susceptibility was calculated as the ratio of the IC50 value in MES-SA-Dx5-Rx1 cells, which overexpress P-gp, to the IC50 value in MES-SA cells.

[4] = test system: TE-8 (human squamous cell carcinoma of the esophagus); experiment: In vitro antiproliferative activity, TE-8; format: cell-based; conditions: TE-8, 72 hours
Experimental: as §1

[5] = test system: CTG-2041 (human angiosarcoma) tumor fragments; experiment: Antitumor effects in CTG-2041 soft tissue sarcoma xenograft model in mice as monotherapy; format: in vivo; conditions: 100 μg/kg intravenously on Day 1 and Day 8
Excerpt: Tumor fragments of human angiosarcoma CTG-2041 were implanted s.c. in the left flank of female mice. Tumor growth was monitored twice a week using digital caliper, so as to calculate the volume of the tumor in accordance with the following calculation formula: Tumor volume (mm^3)=Longest diameter (mm)×Shortest diameter (mm)×Shortest diameter (mm)/2 Relative tumor volume (RTV)=Tumor volume (day X)/Tumor volume (the first day)
When the volume of tumors reached approximately 200 mm^3, animals are matched by tumor volume into treatment or control groups and dosing initiated on Day 1. Each group was consisted with five mice. Compound (1) was dissolved in DMSO and a solution was stored in the freezer before use. Compound (1) (100 μg/kg) diluted in saline and intravenously injected on Day 1 and Day 8.

Question: How did the IC50 [1] turn out when `C=C1C[C@@H]2CC[C@@]34C[C@H]5O[C@H]6[C@@H](O3)[C@H]3O[C@H](CC[C@@H]3O[C@H]6C5O4)CC(=O)O[C@@H]3[C@@H](C)[C@@H]4O[C@@H]5C[C@]6(C[C@@H]7O[C@]8(C[C@H](C)[C@@H]9O[C@H](CN)[C@H](O)C[C@@H]9O8)C[C@H](C)[C@@H]7O6)O[C@@H]5C[C@@H]4O[C@H]3C[C@H]3O[C@@H](CC[C@@H]1O2)C[C@@H](C)C3=C` [Compound (1)] was run?
Answer: 0.0668 nM

Question: And the “effect on microtubule (MT) dynamics” value [2]?
Answer: had the ability to suppress the MT dynamics

Question: What about the “time at which comet-like structures of EB3-AG became hard to observe” value ([2]; 0.5 nM, after the addition of the compound) of the same compound?
Answer: around 60 minutes

Question: And the antiproliferative activity [3]?
Answer: potent antiproliferative agent

Question: And the antiproliferative activity [4]?
Answer: potent antiproliferative agent

Question: What about the antitumor activity [5] of the same compound?
Answer: tumor regression
